Laboratory results as given in US20230139445A1, “BACTERIAL CELLS WITH IMPROVED TOLERANCE TO DIACIDS” (priority 2016, published 2023).
“And” between values parts separate entries of the source, which are not always exact repeats. Equal values may be shown once.

How the values were obtained:
[1] = test system: Escherichia coli K-12 MG1655 knockout mutants; test: Growth Profiler growth screening of K-12 MG1655 single, double and triple knockout mutants in glutaric or adipic acid; type: cell-based
[2] = test system: Escherichia coli K-12 MG1655; test: Screening for tolerance in wild-type cells: growth in varying concentrations of neutralized diacid, Biolector; type: cell-based; conditions: for tlag (lag time), mean / μ (growth rate), mean: neutralized with sodium hydroxide; for maximum measured concentration at which exponentially growing K-12 MG1655 can grow: neutralized diacid in M9+1% glucose
Procedure: Escherichia coli K-12 MG1655 was grown overnight in M9 minimal medium+1% glucose and subcultured the following morning to an initial OD600 of 0.05 in M9+1% glucose. Cells were grown to mid-exponential phase (OD600 0.7-1.0) and were back-diluted with fresh medium to an OD600 of 0.7. The diluted cells were used to inoculate M9+1% glucose containing varying concentrations of glutaric acid or adipic acid which were neutralized to pH 7.0 with sodium hydroxide, and growth was measured in FlowerPlates in a Biolector microbioreactor system (m2p-labs) at 37° C. with 1000 rpm shaking. The culture volume in each well was 1.4 mL.

[3] = strain MG1655, M9 + 25 g/L adipate (neutralized)
[4] = strain MG1655, M9 + 50 g/L adipate (neutralized)
[5] = strain MG1655 kgtP::kan, M9 + 25 g/L adipate (neutralized)
[6] = strain MG1655 kgtP::kan, M9 + 50 g/L adipate (neutralized)
[7] = strain MG1655 ΔkgtP proV::kan, M9 + 25 g/L adipate (neutralized)
[8] = strain MG1655 ΔkgtP pstS::kan, M9 + 25 g/L adipate (neutralized)
[9] = strain MG1655 ΔkgtP pstS::kan, M9 + 50 g/L adipate (neutralized)
[10] = strain MG1655 ΔkgtP sspA::kan, M9 + 25 g/L adipate (neutralized)
[11] = strain MG1655 ΔkgtP ΔproV nagC::kan, M9 + 25 g/L adipate (neutralized)
[12] = strain MG1655 ΔkgtP ΔproV nagC::kan, M9 + 50 g/L adipate (neutralized)
[13] = strain MG1655, M9 + 23.8 g/L glutarate (neutralized)
[14] = strain MG1655, M9 + 47.5 g/L glutarate (neutralized)
[15] = strain MG1655 kgtP::kan, M9 + 23.8 g/L glutarate (neutralized)
[16] = strain MG1655 kgtP::kan, M9 + 47.5 g/L glutarate (neutralized)
[17] = strain MG1655 ΔkgtP nagC::kan, M9 + 23.8 g/L glutarate (neutralized)
[18] = strain MG1655 ΔkgtP nagC::kan, M9 + 47.5 g/L glutarate (neutralized)
[19] = strain MG1655 ΔkgtP proV::kan, M9 + 23.8 g/L glutarate (neutralized)
[20] = strain MG1655 ΔkgtP rnb::kan, M9 + 23.8 g/L glutarate (neutralized)
[21] = strain MG1655 ΔkgtP rnb::kan, M9 + 47.5 g/L glutarate (neutralized)
[22] = strain MG1655 ΔkgtP sspA::kan, M9 + 23.8 g/L glutarate (neutralized)
[23] = strain MG1655 ΔkgtP ΔproV nagC::kan, M9 + 23.8 g/L glutarate (neutralized)
[24] = strain MG1655 ΔkgtP ΔproV nagC::kan, M9 + 47.5 g/L glutarate (neutralized)

For `O=C(O)CCCCC(=O)O` [adipic acid], which “mean growth rate μ” value [1, 3] is on record?
Its value is 0.467 h⁻¹.

What about the “mean lag time tlag” value [1, 3] of the same molecule?
The value was 6.9 h.

What about the “mean growth rate μ” value [1, 4] of the same molecule?
Its value is 0.115 h⁻¹.

And the “mean lag time tlag” value [1, 4]?
Its value is 25.7 h.

What about the “mean growth rate μ” value [1, 5] of the same molecule?
Its value is 0.534 h⁻¹.

What about the “mean lag time tlag” value [1, 5] of the same molecule?
Its value is 6.4 h.

And the “mean growth rate μ” value [1, 6]?
The value was 0.192 h⁻¹.

What about the “mean lag time tlag” value [1, 6] of the same molecule?
Its value is 17.5 h.

What about the “mean growth rate μ” value [1, 7] of the same molecule?
The value was 0.583 h⁻¹.

And the “mean lag time tlag” value [1, 7]?
The value was 6.2 h.

And the “mean growth rate μ” value [1, 8]?
Its value is 0.465 h⁻¹.

And the “mean lag time tlag” value [1, 8]?
The value was 7.6 h.

What about the “mean growth rate μ” value [1, 9] of the same molecule?
Its value is 0.139 h⁻¹.

What about the “mean lag time tlag” value [1, 9] of the same molecule?
Its value is 21.3 h.

What about the “mean growth rate μ” value [1, 10] of the same molecule?
Its value is 0.525 h⁻¹.

And the “mean lag time tlag” value [1, 10]?
The value was 6.8 h.

And the “mean lag time tlag” value ([1]; strain MG1655 ΔkgtP sspA::kan, M9 + 50 g/L adipate (neutralized))?
The value was 49.2 h.

And the “mean growth rate μ” value [1, 11]?
Its value is 0.501 h⁻¹.

And the “mean lag time tlag” value [1, 11]?
The value was 6.8 h.

And the “mean growth rate μ” value [1, 12]?
Its value is 0.213 h⁻¹.

What about the “mean lag time tlag” value [1, 12] of the same molecule?
Its value is 19.7 h.

What about the “tlag (lag time), mean” value ([2]; 10 g/L) of the same molecule?
The value was 1.0 h.

And the “μ (growth rate), mean” value ([2]; 10 g/L, M9+1% glucose, 37° C)?
Its value is 0.575 h⁻¹.

What about the “tlag (lag time), mean” value ([2]; 20 g/L) of the same molecule?
Its value is 1.3 h.

And the “μ (growth rate), mean” value ([2]; 20 g/L)?
Its value is 0.494 h⁻¹.

What about the “tlag (lag time), mean” value ([2]; 30 g/L) of the same molecule?
Its value is 1.8 h.

What about the “μ (growth rate), mean” value ([2]; 30 g/L) of the same molecule?
Its value is 0.367 h⁻¹.

And the “tlag (lag time), mean” value ([2]; 40 g/L)?
Its value is 4.0 h.

What about the “μ (growth rate), mean” value ([2]; 40 g/L) of the same molecule?
The value was 0.263 h⁻¹.

What about the “tlag (lag time), mean” value ([2]; 50 g/L) of the same molecule?
The value was 2.4 h.

And the “μ (growth rate), mean” value ([2]; 50 g/L)?
The value was 0.120 h⁻¹.

And the “tlag (lag time), mean” value ([2]; 75 g/L)?
The value was 27 h and 27.2 h.

And the “μ (growth rate), mean” value ([2]; 75 g/L)?
Its value is 0.203 h⁻¹.

What about the “μ (growth rate), mean” value ([2]; 100 g/L) of the same molecule?
Its value is 0.000 h⁻¹.

And the “maximum measured concentration at which exponentially growing K-12 MG1655 can grow” value [2]?
Its value is 75 g/L.

Which “mean growth rate μ” value [1, 13] does the source give for `O=C(O)CCCC(=O)O` [glutaric acid] here?
The value was 0.466 h⁻¹.

What about the “mean lag time tlag” value [1, 13] of the same molecule?
The value was 7.4 h.

What about the “mean growth rate μ” value [1, 14] of the same molecule?
The value was 0.101 h⁻¹.

And the “mean lag time tlag” value [1, 14]?
Its value is 21.8 h.

What about the “mean growth rate μ” value [1, 15] of the same molecule?
Its value is 0.487 h⁻¹.

And the “mean lag time tlag” value [1, 15]?
The value was 6.1 h.

What about the “mean growth rate μ” value [1, 16] of the same molecule?
The value was 0.191 h⁻¹.

What about the “mean lag time tlag” value [1, 16] of the same molecule?
The value was 13.5 h.

What about the “mean growth rate μ” value [1, 17] of the same molecule?
The value was 0.491 h⁻¹.

What about the “mean lag time tlag” value [1, 17] of the same molecule?
The value was 6.7 h.

And the “mean growth rate μ” value [1, 18]?
The value was 0.179 h⁻¹.

And the “mean lag time tlag” value [1, 18]?
The value was 15.0 h.

What about the “mean growth rate μ” value [1, 19] of the same molecule?
Its value is 0.520 h⁻¹.

What about the “mean lag time tlag” value [1, 19] of the same molecule?
The value was 6.2 h.

What about the “mean growth rate μ” value ([1]; strain MG1655 ΔkgtP proV::kan, M9 + 47.5 g/L glutarate (neutralized)) of the same molecule?
The value was 0.251 h⁻¹.

What about the “mean growth rate μ” value [1, 20] of the same molecule?
Its value is 0.505 h⁻¹.

And the “mean lag time tlag” value [1, 20]?
The value was 6.3 h.

What about the “mean growth rate μ” value [1, 21] of the same molecule?
Its value is 0.183 h⁻¹.

What about the “mean lag time tlag” value [1, 21] of the same molecule?
Its value is 13.6 h.

What about the “mean growth rate μ” value [1, 22] of the same molecule?
Its value is 0.473 h⁻¹.

What about the “mean lag time tlag” value [1, 22] of the same molecule?
Its value is 6.1 h.

What about the “mean lag time tlag” value ([1]; strain MG1655 ΔkgtP sspA::kan, M9 + 47.5 g/L glutarate (neutralized)) of the same molecule?
The value was 12.2 h.

And the “mean growth rate μ” value [1, 23]?
The value was 0.541 h⁻¹.

And the “mean lag time tlag” value [1, 23]?
Its value is 6.6 h.

What about the “mean growth rate μ” value [1, 24] of the same molecule?
The value was 0.215 h⁻¹.

What about the “mean lag time tlag” value [1, 24] of the same molecule?
The value was 14.0 h.

What about the “tlag (lag time), mean” value ([2]; 10 g/L) of the same molecule?
The value was 2.0 h.

What about the “μ (growth rate), mean” value ([2]; 10 g/L, M9+1% glucose, 37° C) of the same molecule?
Its value is 0.526 h⁻¹.

What about the “tlag (lag time), mean” value ([2]; 20 g/L) of the same molecule?
Its value is 1.9 h.

What about the “μ (growth rate), mean” value ([2]; 20 g/L) of the same molecule?
The value was 0.377 h⁻¹.

And the “tlag (lag time), mean” value ([2]; 30 g/L)?
The value was 0.6 h.

What about the “μ (growth rate), mean” value ([2]; 30 g/L) of the same molecule?
Its value is 0.234 h⁻¹.

And the “tlag (lag time), mean” value ([2]; 40 g/L)?
Its value is 0.7 h.

What about the “μ (growth rate), mean” value ([2]; 40 g/L) of the same molecule?
Its value is 0.132 h⁻¹.

What about the “tlag (lag time), mean” value ([2]; 50 g/L) of the same molecule?
Its value is 15.9 h.

What about the “μ (growth rate), mean” value ([2]; 50 g/L) of the same molecule?
The value was 0.096 h⁻¹.

What about the “μ (growth rate), mean” value ([2]; 75 g/L) of the same molecule?
The value was 0.000 h⁻¹.

What about the “maximum measured concentration at which exponentially growing K-12 MG1655 can grow” value [2] of the same molecule?
The value was 50 g/L.
